Assays:
Experiment in all cases: relative viability (nuclei count vs DMSO), 5 days (fraction); higher = more cells survive
[1] = tested on: NCI-H3122
Outline: (§1)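 Cells from lung cancer lines were seeded into 1536-well plates and, one day later, dosed by pin tool. Treatments were either a single drug or a fixed dose of an anchor drug with five library-drug doses (not always all listed) in √10 steps. After 5 days, nuclei were stained in a one-step fixation (final 0.05% Triton X-100, 1% formaldehyde, 1 ug/ml Hoechst) and counted on 4× images, and relative viability is the treated-to-vehicle nuclei ratio, as the median of duplicate plates.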

[2] = tested on: NCI-H2085
Outline: as §1

[3] = tested on: HCC-44
Outline: as §1

[4] = tested on: HCC-366
Outline: as §1

[5] = tested on: PC-14
Outline: as §1

[6] = tested on: NCI-H1734
Outline: as §1

[7] = tested on: ABC-1
Outline: as §1

[8] = tested on: ChaGo-K-1
Outline: as §1

[9] = tested on: EPLC-272H
Outline: as §1

[10] = tested on: NCI-H1944
Outline: as §1

[11] = tested on: HCC-827
Outline: as §1

[12] = tested on: NCI-H1793
Outline: as §1

[13] = tested on: LCLC-103H
Outline: as §1

[14] = tested on: HCC-15
Outline: as §1

[15] = tested on: NCI-H2347
Outline: as §1

[16] = tested on: NCI-H1355
Outline: as §1

[17] = tested on: NCI-H2405
Outline: as §1

## Cc1csc(=NC2CCCCC2)n1/N=C/c1ccc(O)c(O)c1O [MIM1] + NC(=O)Nc1cc(-c2cccc(F)c2)sc1C(=O)N[C@H]1CCCNC1 [AZD7762] (partner 0.2 µM)
[1]; first compound 0.2 µM
  relative viability: 0.945
[1]; first compound 0.6325 µM
  relative viability: 0.978
[1]; first compound 2 µM
  relative viability: 0.973
[1]; first compound 6.325 µM
  relative viability: 0.472
[1]; first compound 20 µM
  relative viability: 0.19
[2]; first compound 0.2 µM
  relative viability: 1
[2]; first compound 0.6325 µM
  relative viability: 0.963
[2]; first compound 2 µM
  relative viability: 1.07
[2]; first compound 6.325 µM
  relative viability: 0.766
[2]; first compound 20 µM
  relative viability: 0.775
[3]; first compound 0.2 µM
  relative viability: 0.985
[3]; first compound 0.6325 µM
  relative viability: 0.985
[3]; first compound 2 µM
  relative viability: 0.961
[3]; first compound 6.325 µM
  relative viability: 0.947
[3]; first compound 20 µM
  relative viability: 0.521
[4]; first compound 0.2 µM
  relative viability: 0.318
[4]; first compound 2 µM
  relative viability: 0.181
[4]; first compound 6.325 µM
  relative viability: 0.093
[4]; first compound 20 µM
  relative viability: 0.0374
[5]; first compound 0.2 µM
  relative viability: 0.353
[5]; first compound 0.6325 µM
  relative viability: 0.244
[5]; first compound 2 µM
  relative viability: 0.288
[5]; first compound 6.325 µM
  relative viability: 0.311
[5]; first compound 20 µM
  relative viability: 0.111
[6]; first compound 0.2 µM
  relative viability: 0.524
[6]; first compound 0.6325 µM
  relative viability: 0.467
[6]; first compound 2 µM
  relative viability: 0.492
[6]; first compound 6.325 µM
  relative viability: 0.417
[6]; first compound 20 µM
  relative viability: 0.158
[7]; first compound 0.2 µM
  relative viability: 0.664
[7]; first compound 0.6325 µM
  relative viability: 0.896
[7]; first compound 2 µM
  relative viability: 0.814
[7]; first compound 6.325 µM
  relative viability: 0.788
[7]; first compound 20 µM
  relative viability: 0.341
[8]; first compound 0.2 µM
  relative viability: 0.869
[8]; first compound 0.6325 µM
  relative viability: 0.883
[8]; first compound 2 µM
  relative viability: 0.907
[8]; first compound 6.325 µM
  relative viability: 0.596
[8]; first compound 20 µM
  relative viability: 0.248
[9]; first compound 0.2 µM
  relative viability: 0.224
[9]; first compound 0.6325 µM
  relative viability: 0.305
[9]; first compound 2 µM
  relative viability: 0.208
[9]; first compound 6.325 µM
  relative viability: 0.245
[9]; first compound 20 µM
  relative viability: 0.106
[10]; first compound 0.2 µM
  relative viability: 0.511
[10]; first compound 0.6325 µM
  relative viability: 0.479
[10]; first compound 2 µM
  relative viability: 0.475
[10]; first compound 6.325 µM
  relative viability: 0.397
[10]; first compound 20 µM
  relative viability: 0.243
[11]; first compound 0.2 µM
  relative viability: 0.245
[11]; first compound 0.6325 µM
  relative viability: 0.235
[11]; first compound 2 µM
  relative viability: 0.165
[11]; first compound 6.325 µM
  relative viability: 0.189
[11]; first compound 20 µM
  relative viability: 0.304
[12]; first compound 0.2 µM
  relative viability: 0.614
[12]; first compound 2 µM
  relative viability: 0.412
[12]; first compound 6.325 µM
  relative viability: 0.424
[12]; first compound 20 µM
  relative viability: 0.271
[13]; first compound 0.2 µM
  relative viability: 0.691
[13]; first compound 0.6325 µM
  relative viability: 0.79
[13]; first compound 2 µM
  relative viability: 0.759
[13]; first compound 6.325 µM
  relative viability: 0.698
[13]; first compound 20 µM
  relative viability: 0.399
[14]; first compound 0.2 µM
  relative viability: 1.2
[14]; first compound 2 µM
  relative viability: 1.23
[14]; first compound 6.325 µM
  relative viability: 0.808
[14]; first compound 20 µM
  relative viability: 0.179
[15]; first compound 0.2 µM
  relative viability: 0.689
[15]; first compound 0.6325 µM
  relative viability: 0.779
[15]; first compound 2 µM
  relative viability: 0.797
[15]; first compound 6.325 µM
  relative viability: 0.623
[15]; first compound 20 µM
  relative viability: 0.57
[16]; first compound 0.2 µM
  relative viability: 0.802
[16]; first compound 0.6325 µM
  relative viability: 0.69
[16]; first compound 2 µM
  relative viability: 0.814
[16]; first compound 6.325 µM
  relative viability: 0.529
[16]; first compound 20 µM
  relative viability: 0.673
[17]; first compound 0.2 µM
  relative viability: 0.835
[17]; first compound 0.6325 µM
  relative viability: 0.806
[17]; first compound 2 µM
  relative viability: 0.772
[17]; first compound 6.325 µM
  relative viability: 0.667
[17]; first compound 20 µM
  relative viability: 0.849

From the supplement of paper PMC10307832
